≈ marks a conversion by molar mass, not a printed value.
Tests used:
Format in all cases: functional
[1] = test system: Escherichia coli; test: Antibacterial activity against Escherichia coli after 24 hr by disk diffusion test
[2] = test system: Pseudomonas aeruginosa; test: Antibacterial activity against Pseudomonas aeruginosa after 24 hr by agar plate method
[3] = test system: Aspergillus niger; test: Antifungal activity against Aspergillus niger after 48 hr by disk diffusion test
[4] = test system: Aspergillus niger; test: Antifungal activity against Aspergillus niger after 48 hr by agar plate method
[5] = test system: Candida albicans; test: Antifungal activity against Candida albicans after 48 hr by agar plate method
[6] = test system: Staphylococcus aureus; test: Antibacterial activity against Staphylococcus aureus after 24 hr by disk diffusion test
[7] = test system: Pseudomonas aeruginosa; test: Antibacterial activity against Pseudomonas aeruginosa after 24 hr by disk diffusion test
[8] = test system: Escherichia coli; test: Antibacterial activity against Escherichia coli after 24 hr by agar plate method
[9] = test system: Bacillus subtilis; test: Antibacterial activity against Bacillus subtilis after 24 hr by agar plate method
[10] = test system: Candida albicans; test: Antifungal activity against Candida albicans after 48 hr by disk diffusion test
[11] = test system: Staphylococcus aureus; test: Antibacterial activity against Staphylococcus aureus after 24 hr by agar plate method
[12] = test system: Bacillus subtilis; test: Antibacterial activity against Bacillus subtilis after 24 hr by disk diffusion test

SMILES | inhibition zone (IZ) [1] [mm] | MIC [2] [µg/mL] | inhibition zone (IZ) [3] [mm] | MIC [4] [µg/mL] | MIC [5] [µg/mL] | inhibition zone (IZ) [6] [mm] | inhibition zone (IZ) [7] [mm] | MIC [8] [µg/mL] | MIC [9] [µg/mL] | inhibition zone (IZ) [10] [mm] | MIC [11] [µg/mL] | inhibition zone (IZ) [12] [mm]
O=c1cc(Oc2nc(Nc3ccccc3)nc(N3CCOCC3)n2)c2ccccc2o1 | 22 | 100 (≈ 240 µM) | 21 | 6.25 (≈ 15 µM) | 100 (≈ 240 µM) | 19 | 17 | 25 (≈ 59.9 µM) | 100 (≈ 240 µM) | 19 | 100 (≈ 240 µM) | 16
Cc1cc(=O)oc2cc(Oc3nc(Nc4ccccc4)nc(N4CCN(c5ccccc5)CC4)n3)ccc12 | 17 | 100 (≈ 197 µM) | 17 | 100 (≈ 197 µM) | 100 (≈ 197 µM) | 17 | 15 | 100 (≈ 197 µM) | 100 (≈ 197 µM) | 18 | 100 (≈ 197 µM) | 20
Cc1cc(=O)oc2cc(Oc3nc(Nc4ccccc4)nc(N4CCN(c5cccc(Cl)c5Cl)CC4)n3)ccc12 | 23 | 12.5 (≈ 21.7 µM) | 23 | 12.5 (≈ 21.7 µM) | 12.5 (≈ 21.7 µM) | 24 | 24 | 12.5 (≈ 21.7 µM) | 12.5 (≈ 21.7 µM) | 25 | 25 (≈ 43.4 µM) | 25
Cc1cc(=O)oc2cc(Oc3nc(Nc4ccccc4)nc(N4CCN(c5cccc(Cl)c5)CC4)n3)ccc12 | 22 | 12.5 (≈ 23.1 µM) | 23 | 25 (≈ 46.2 µM) | 12.5 (≈ 23.1 µM) | 22 | 24 | 25 (≈ 46.2 µM) | 50 (≈ 92.4 µM) | 25 | 25 (≈ 46.2 µM) | 23
O=c1cc(Oc2nc(Nc3ccccc3)nc(N3CCN(c4ncccn4)CC3)n2)c2ccccc2o1 | 21 | 50 (≈ 101 µM) | 19 | 12.5 (≈ 25.3 µM) | 12.5 (≈ 25.3 µM) | 23 | 20 | 50 (≈ 101 µM) | 12.5 (≈ 25.3 µM) | 22 | 12.5 (≈ 25.3 µM) | 22
Cc1cc(=O)oc2cc(Oc3nc(Nc4ccccc4)nc(N4CCN(c5ncccn5)CC4)n3)ccc12 | 21 | 50 (≈ 98.3 µM) | 22 | 25 (≈ 49.2 µM) | 25 (≈ 49.2 µM) | 24 | 23 | 25 (≈ 49.2 µM) | 12.5 (≈ 24.6 µM) | 24 | 6.25 (≈ 12.3 µM) | 24
CC(=O)N1CCN(c2nc(Nc3ccccc3)nc(Oc3cc(=O)oc4ccccc34)n2)CC1 | 22 | 50 (≈ 109 µM) | 18 | 100 (≈ 218 µM) | 50 (≈ 109 µM) | 23 | 22 | 12.5 (≈ 27.3 µM) | 100 (≈ 218 µM) | 20 | 25 (≈ 54.5 µM) | 20
Cc1cc(=O)oc2cc(Oc3nc(Nc4ccccc4)nc(N4CCN(C)CC4)n3)ccc12 | 16 | 100 (≈ 225 µM) | 16 | 100 (≈ 225 µM) | 100 (≈ 225 µM) | 19 | 20 | 100 (≈ 225 µM) | 100 (≈ 225 µM) | 20 | 100 (≈ 225 µM) | 21
CC(C)N1CCN(c2nc(Nc3ccccc3)nc(Oc3cc(=O)oc4ccccc34)n2)CC1 | 18 | 100 (≈ 218 µM) | 21 | 25 (≈ 54.5 µM) | 100 (≈ 218 µM) | 20 | 18 | 100 (≈ 218 µM) | 50 (≈ 109 µM) | 17 | 100 (≈ 218 µM) | 18
CC(=O)N1CCN(c2nc(Nc3ccccc3)nc(Oc3ccc4c(C)cc(=O)oc4c3)n2)CC1 | 23 | 25 (≈ 52.9 µM) | 21 | 50 (≈ 106 µM) | 25 (≈ 52.9 µM) | 22 | 23 | 12.5 (≈ 26.5 µM) | 50 (≈ 106 µM) | 25 | 25 (≈ 52.9 µM) | 23
CN1CCN(c2nc(Nc3ccccc3)nc(Oc3cc(=O)oc4ccccc34)n2)CC1 | 16 | 100 (≈ 232 µM) | 14 | 100 (≈ 232 µM) | 100 (≈ 232 µM) | 16 | 17 | 100 (≈ 232 µM) | 100 (≈ 232 µM) | 17 | 100 (≈ 232 µM) | 20
O=c1cc(Oc2nc(Nc3ccccc3)nc(N3CCN(c4cccc(Cl)c4)CC3)n2)c2ccccc2o1 | 22 | 25 (≈ 47.4 µM) | 20 | 50 (≈ 94.9 µM) | 12.5 (≈ 23.7 µM) | 21 | 23 | 25 (≈ 47.4 µM) | 25 (≈ 47.4 µM) | 23 | 50 (≈ 94.9 µM) | 21
Cc1cc(=O)oc2cc(Oc3nc(Nc4ccccc4)nc(N4CCCCC4)n3)ccc12 | 22 | 100 (≈ 233 µM) | 22 | 12.5 (≈ 29.1 µM) | 50 (≈ 116 µM) | 21 | 21 | 25 (≈ 58.2 µM) | 100 (≈ 233 µM) | 22 | 50 (≈ 116 µM) | 19
Cc1cc(=O)oc2cc(Oc3nc(Nc4ccccc4)nc(N4CCN(c5ccccn5)CC4)n3)ccc12 | 22 | 50 (≈ 98.5 µM) | 23 | 12.5 (≈ 24.6 µM) | 25 (≈ 49.3 µM) | 23 | 22 | 25 (≈ 49.3 µM) | 12.5 (≈ 24.6 µM) | 23 | 12.5 (≈ 24.6 µM) | 24
CCN1CCN(c2nc(Nc3ccccc3)nc(Oc3cc(=O)oc4ccccc34)n2)CC1 | 15 | 100 (≈ 225 µM) | 17 | 100 (≈ 225 µM) | 100 (≈ 225 µM) | 17 | 18 | 100 (≈ 225 µM) | 50 (≈ 112 µM) | 19 | 100 (≈ 225 µM) | 20
O=c1cc(Oc2nc(Nc3ccccc3)nc(N3CCCCC3)n2)c2ccccc2o1 | 22 | 100 (≈ 241 µM) | 21 | 12.5 (≈ 30.1 µM) | 100 (≈ 241 µM) | 19 | 16 | 25 (≈ 60.2 µM) | 50 (≈ 120 µM) | 20 | 100 (≈ 241 µM) | 20

— ChEMBL document CHEMBL3045112, “In vitro antimicrobial assessment of coumarin-based s-triazinyl piperazines” (2012)
